Assay results reported in patent US20230190967A1, “Method and Composition for Evaluating Response to Neurodegenerative Disease Treatment Agent” (GENUV INC., priority 2020, published 2023).
“Also recorded” adds a separate entry of the source. Read-outs that look alike come from different tables or passages of the source.

Key:
Synaptotagmin-1 (Syt1) = assay: ELISA of plasma synaptotagmin-1 in 5XFAD mice; type: in vivo, mouse; settings: 8-month-old 5XFAD
Protocol: (§1) Age-matched wild-type (WT) mice were orally administered vehicle for 2.5 months. Blood was obtained from all the mice at the age of 8 months after completion of the treatment and collected in EDTA tubes, which were centrifuged to obtain plasma. Mice were sacrificed by the perfusion method, and the brain cortex was extracted and immediately frozen.
(§2) ELISA was performed to detect changes in the level of biomarkers in the plasma of 5XFAD mice. The following ELISA kits were used for each of the biomarkers: • Neurofilament-light chain (NfL): Cloud-Clone, SEE038Mu • Cathepsin B (CTSB): Novus, NBP2-67254 • Osteopontin (OPN): LS bio, LS-F26046-1 • Synaptotagmin-1 (Syt1): LS bio, LS-F30963-1 • Apolipoprotein-E (ApoE): Novus, NBP2-66739
(§3) NfL, CTSB and ApoE were detected by colorimetric methods. OPN and Syt1 were detected by chemiluminescent methods. ELISA was performed according to the ELISA kit manufacturer's instructions.

Apolipoprotein-E (ApoE) = assay: ELISA of plasma apolipoprotein-E in 5XFAD mice; type: in vivo, mouse; settings: 8-month-old 5XFAD
Protocol: as §1, §2, §3

[1] = test system: Neurofilament-light chain (NfL); assay: ELISA of plasma neurofilament light chain in 5XFAD mice; type: in vivo, mouse
Excerpt: as §1
(§4) Blood was obtained from the 13-month-old mice after completion of the treatment and collected in EDTA tubes, which were centrifuged to obtain plasma. Mice were sacrificed, and the brain cortex was extracted, washed with PBS, and immediately frozen.
as §2, §3

H2-Ob mRNA = assay: qRT-PCR of H2-Ob mRNA expression in brain cortex of 5XFAD mice; type: in vivo, mouse; settings: 8-month-old 5XFAD mice brain cortex, 0.1 mg/kg/day trametinib, FIG. 11
Protocol: as §1
(§5) In addition, qRT-PCR was performed to measure the mRNA expression level in the brain tissue of each animal. […] Reverse transcription was performed using M-MLV reverse transcriptase (Invitrogen, 28025013). qRT-PCR was performed using the SYBRTM Green PCR master mix (Thermo, 4367659) according to the manufacturer's instructions. Results were expressed relative to the housekeeping gene GAPDH (Glyceraldehyde-3-Phosphate Dehydrogenase).

[2] = test system: 8-month-old 5XFAD mouse brain cortex
Protocol: as §1
(§6) Single-cell RNA sequencing analysis was performed on the 8-month-old 5XFAD mouse and wild type mouse brain cortex samples. The cortex was microdissected in HABG (Hibernate A buffer including B27 supplement and glutamine) media and digested in papain solution for 20 min at 37° C. (Brewer et al (2007). Isolation and culture of adult neurons and neurospheres. Nat Protoc 2, 1490-1498). Using a Pasteur pipette, the digested cortex was gently triturated. Cells were isolated by the density gradient method using OptiPrep (Sigma-Aldrich, D1556).
The cell suspension was diluted with Drop-seq buffer, and Drop-seq was performed using the Chromium™ Single Cell 3′ v2 Reagent Kit (Campbell et al. (2017). A molecular census of arcuate hypothalamus and median eminence cell types. Nat Neurosci 20, 484-496). Libraries were sequenced on the Illumina HiSeq X Ten, and Read 1 was 16 bp (10×™ Barcode and 10 bp UMI). Cells with either very low or too high mRNA content (to only include: 200<gene number <3,000) or a high fraction of mitochondrial encoded transcripts (>20%) were filtered out. Using 20,056 cells, raw sequence data were aligned to the mouse (mm10) genome, and analyses including PCA, t-SNE, and graph-based clustering were performed with the Cell Ranger Single-Cell software.
In addition to the microglial cells, the other brain cell types were also analyzed for the genes differentially expressed between the experimental groups.

Cathepsin B (CTSB) = test system: Cathepsin B (CTSB)
Excerpt: as §1, §4, §2, §3

Spp1 mRNA = assay: qRT-PCR of Spp1 mRNA expression in brain tissue of 5XFAD mice; type: in vivo, mouse; settings: 0.1 mg/kg/day
Excerpt: as §1, §4, §5

[3] = test system: 8-month-old 5XFAD mouse brain cortex; assay: Single cell RNA sequencing of brain cortex: number of single cells analyzed per cell type; type: in vivo; settings: 8-month-old 5XFAD mice cortex, trametinib 0.1 mg/kg/day
Protocol: as §1, §6
The cell suspension was diluted with Drop-seq buffer, and Drop-seq was performed using the Chromium™ Single Cell 3′ v2 Reagent Kit (Campbell et al. (2017). A molecular census of arcuate hypothalamus and median eminence cell types. Nat Neurosci 20, 484-496). Libraries were sequenced on the Illumina HiSeq X Ten, and Read 1 was 16 bp (10×™ Barcode and 10 bp UMI). […]

Map2, a dendrite marker = assay: Immunohistochemical analysis of Map2 (dendrite/neurite marker) in brain tissue of 5XFAD mice; type: in vivo, mouse; settings: 8-month-old 5XFAD mice, FIGS. 8 and 9
Excerpt: as §1
The sections were counterstained with DAPI.

C57BL/6 mice whole brain = assay: Whole cell RNA sequencing of whole brain of C57BL/6 mice after 1, 2, 3, or 4 weeks of administration; type: in vivo, mouse; settings: 0.1 mg/kg/day
Protocol: Mice were sacrificed after 1, 2, 3, or 4 weeks of administration. Whole brain was extracted.
Whole cell RNA sequencing analysis was performed with the RNA isolated from the whole brain of the mice to observe the change of genes in the brain during the administration period.
The whole cell RNA sequencing was performed as follows. RNA was isolated from the whole brains of the mice, and cDNA libraries for RNA sequencing were prepared using the TruSeq Stranded mRNA Prep Kit (Illumina, San Diego, Calif.) according to the manufacturer's guidelines. The libraries were sequenced on the Illumina Nextseq500 platform, and the reads were mapped to the reference Mouse mm10 genome using Tophat v2.0.13. After read mapping, transcript assembly was performed using StringTie program. The expression profile for each sample was obtained, and RPKM (Read per Kilobase per million mapped reads) values were calculated based on the transcripts/genes. To compare the gene expression levels in each experimental group, DEG (Differentially Expressed Genes) were analyzed using DESeq2. As a result, 196 genes satisfying |fc|>=2, p value <0.05 in at least one comparison set were extracted. The extracted gene information was checked in KEGG database (http://www.kegg.jp/kegg/pathway.html) to identify which pathway the genes belong to. Genes showing at least a twofold increase in the expression level in the corresponding pathway were marked bold, and those showing at least a twofold decrease were marked italic on the right side of the heatmap (FIG. 10).

Osteopontin (OPN) = assay: ELISA of plasma osteopontin in 5XFAD mice; type: in vivo, mouse; settings: for Decrease of plasma osteopontin (OPN) level vs. 5XFAD-vehicle group: 8-month-old 5XFAD
Excerpt: as §1, §4, §2, §3

[4] = 8-month-old 5XFAD, trametinib 0.1 mg/kg/day, statistically significant
[5] = M (microglia), 8-month-old 5XFAD cortex, 0.1 mg/kg/day
[6] = microglia cluster, 5XFAD-Tra 0.1 group
[7] = C57BL/6 mice whole brain, at least twofold

CC(=O)Nc1cccc(-n2c(=O)n(C3CC3)c(=O)c3c(Nc4ccc(I)cc4F)n(C)c(=O)c(C)c32)c1 [trametinib, N-(3-{3-cyclopropyl-5-[(2-fluoro-4-iodophenyl)amino]-6,8-dimethyl-2,4,7-trioxo-3,4,6,7-tetrahydropyrido[4,3-d]pyrimidin-1(2H)-yl}phenyl)acetamide]
Decrease of plasma synaptotagmin-1 (Syt1) level vs. 5XFAD-vehicle group (Synaptotagmin-1 (Syt1); trametinib 0.05 mg/kg/day): 26.2%
Decrease of plasma synaptotagmin-1 (Syt1) level vs. 5XFAD-vehicle group (Synaptotagmin-1 (Syt1); trametinib 0.1 mg/kg/day): 41.0%
Decrease of plasma apolipoprotein-E (APOE) level vs. 5XFAD-vehicle group (Apolipoprotein-E (ApoE); trametinib 0.1 mg/kg/day): 34.3%
Decrease of plasma apolipoprotein-E (APOE) level vs. 5XFAD-vehicle group (Apolipoprotein-E (ApoE); trametinib 0.2 mg/kg, statistically significant): 58.9%
Decrease of plasma neurofilament light chain (NfL) level vs. 5XFAD-vehicle group [1, 4]: 47.4%
Plasma NfL levels, vehicle vs. trametinib-administered groups ([1]; 13-month-old 5XFAD, trametinib 0.1 mg/kg/day 1 month, FIG. 7B): did not show a significant difference
H2-Ob mRNA expression level compared to the 5XFAD-vehicle group (H2-Ob mRNA): significantly increased
Log2(5XFAD-Tra0.1/5XFAD-Veh) ApoE (Apolipoprotein E) ([2]; Astro (Astrocyte), 8-month-old 5XFAD cortex, 0.1 mg/kg/day): −0.5177
Log2(5XFAD-Tra0.1/5XFAD-Veh) CTSB (Cathepsin B) ([2]; Endo (Endothelial), 8-month-old 5XFAD cortex, 0.1 mg/kg/day): 0.8182
Log2(5XFAD-Tra0.1/5XFAD-Veh) CTSE (Cathepsin E) [2, 5]: −0.543
Log2(5XFAD-Tra0.1/5XFAD-Veh) Spp1 (Osteopontin) [2, 5]: −0.646
Decrease of Spp1 expression compared to the 5XFAD-vehicle group [2, 6]: at least 1.5 fold
Decrease of Wfdc17 expression compared to the 5XFAD-vehicle group [2, 6]: at least 1.5 fold
Expression of the Spp1 gene (in words) [2, 6]: decreased
Increase of Acta2 expression compared to the 5XFAD-vehicle group [2, 6]: at least 1.5 fold
Increase of Ptgds expression compared to the 5XFAD-vehicle group [2, 6]: at least 1.5 fold
Increase of Rpl9-ps6 expression compared to the 5XFAD-vehicle group [2, 6]: at least 1.5 fold
Increase of Rpl10-ps3 expression compared to the 5XFAD-vehicle group [2, 6]: at least 1.5 fold
Decrease of plasma cathepsin B level vs. 5XFAD-vehicle group (Cathepsin B (CTSB); 8-month-old 5XFAD, trametinib 0.05 mg/kg/day): 62.4%
Decrease of plasma cathepsin B level vs. 5XFAD-vehicle group (Cathepsin B (CTSB); [4]): 99%
Decrease of plasma cathepsin B level vs. 5XFAD-vehicle group (Cathepsin B (CTSB); 13-month-old 5XFAD, trametinib 0.1 mg/kg/day 1 month, FIG. 6): 35%
Spp1 level (mRNA) compared with the 5XFAD-vehicle group (Spp1 mRNA; 8-month-old 5XFAD mice cortex, FIG. 1A): decreasing trend
Spp1 level (mRNA) compared with the 5XFAD-vehicle group (Spp1 mRNA; 13-month-old 5XFAD mice brain, FIG. 1B): decreasing trend
Microglial population compared to the 5XFAD-vehicle group [3]: decrease
Neurite marker (Map2) in the brain tissue (Map2, a dendrite marker): increased
Genes showing an increase in the expression level in weeks 1 and 2 (C57BL/6 mice whole brain; [7]): Oprm1, Glp1r, Grin2a, Grin2b, Glra3,; also recorded: Glra1, Cnr2, Grin3b, Gabrr2, Ksr2, Cdh1,; also recorded: Tead4, Ctnna3, PDE11a, Nt5cla
Genes showing an increase in the expression level in weeks 3 and 4 (C57BL/6 mice whole brain; [7]): Plin4, H2-Ob, Hspa1l, HSPa1b, Hnmpa1,; also recorded: Nos2, Rab5c
Genes showing a decrease in the expression level in weeks 1 and 2 (C57BL/6 mice whole brain; [7]): Pla2g4c, C1s2
Genes showing a decrease in the expression level in weeks 3 and 4 (C57BL/6 mice whole brain; [7]): Efna4, Scd4, Cd36, Ppp3r2
H2-Ob level (whole brain RNA sequencing) (C57BL/6 mice whole brain; C57BL/6 mice, 3 and 4 weeks after the administration): remarkably increased
Decrease of plasma osteopontin (OPN) level vs. 5XFAD-vehicle group (Osteopontin (OPN); trametinib 0.05 mg/kg/day): 40%
Decrease of plasma osteopontin (OPN) level vs. 5XFAD-vehicle group (Osteopontin (OPN); trametinib 0.1 mg/kg/day): 43.9%
Decrease of plasma osteopontin (OPN) level vs. vehicle group (Osteopontin (OPN); 13-month-old 5XFAD, trametinib 0.1 mg/kg/day 1 month, statistically significant): 61.5%
